Test results published in patent US9447069B2, “ROR modulators and their uses” (INNOV17 LLC, priority 2012, dated 2016).

Experiments:
[1] = biological target: T1, RORα LBD (Homo sapiens, UniProt P35398); test: TR-FRET NCoR1-D2 co-repressor recruitment to RORα LBD; type: biochemical
T1 construct: purified GST-tagged (i) RORγ LBD or (ii) RORα LBD; purchased Life Technologies
T1 sequence (P35398 272-510 limits assumed): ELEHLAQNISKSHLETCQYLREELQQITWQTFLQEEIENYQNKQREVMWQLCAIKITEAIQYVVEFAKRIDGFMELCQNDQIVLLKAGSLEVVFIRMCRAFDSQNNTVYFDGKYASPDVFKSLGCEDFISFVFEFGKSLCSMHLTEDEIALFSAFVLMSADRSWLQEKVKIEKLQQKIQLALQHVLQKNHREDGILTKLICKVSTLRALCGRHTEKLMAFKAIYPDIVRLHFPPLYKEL
Description: (§1) The Time-Resolved Fluorescence Resonance Energy Transfer (TR-FRET) assay kit (Life Technologies) was used to measure compound efficacy to disrupt or enhance ligand-mediated interaction of the co-activator and co-repressor peptides with the purified GST-tagged (i) RORγ LBD or (ii) RORα LBD. The RORγ LBD and RORα LBD each have a basal level of interaction with the co-activator D22 or co-repressor NCoR1-D2 in the absence of ligand, thus it is possible to identify compounds that inhibit or induce RORγ and/or RORα co-activator/co-repressor interactions, thus determining RORα, RORγ, or RORα/RORγ compound selectivity. The assay was performed as per manufacturer's instructions and TR-FRET was assessed 2 and 20 hours post-assay initiation. Compounds were identified to (i) have no impact on either co-activator displacement or […] from the assessed LBD (ii) promote co-activator displacement from the assessed LBD (iii) promote co-repressor recruitment to the assessed LBD or (iv) concurrently promote co-activator displacement from the assessed LBD and co-repressor recruitment to the assessed LBD.

[2] = TH17 cell viability (Prestoblue); type: cell-based; conditions: human; 1 μM compound, after 5 days, percentage of DMSO treated cells
Protocol: (§2) Peripheral blood mononuclear cells (PBMCs) were sourced from freshly prepared leukocyte enriched plasma (buffy coat) from healthy volunteers from which PBMCs were isolated by density gradient centrifugation using Ficoll-Paque™ PLUS (GE Healthcare). Naïve CD4+ T cells were isolated using the Naïve CD4+ T cell Isolation Kit II (Miltenyi Biotec) as per manufacturer's instructions. CD4+ T cells were plated at 5×10^4 cells/well in 96 well plates pre-coated with immobilized human (h)-αCD3 antibody (eBioscience) then differentiated to TH17 cells using h-αCD28, h-αIFN-γ, h-αIL-4, h-IL-6, h-IL-23, h-IL-1β, h-TGF-β1 (eBioscience) and maintained in a cell culture incubator at 37° C. with 5% CO2 in TexMACS Medium (Miltenyi Biotec) supplemented with 1% Penicillin/Streptomycin (Lonza) over 5 days.
Cells were assayed for viability in the presence or absence of 1 μM compound using Prestoblue® Cell Viability Reagent (Life Technologies) as per manufacturer's instructions after 30 minutes incubation of TH17 cells with reagent. Absorbance was measured at 570 nm and 600 nm using a microplate reader (Perkin Elmer) and data were analyzed as per manufacturer's instructions. Cell viability was determined after 5 days and expressed as a percentage of DMSO treated cells.

[3] = test system: IL-17AF; test: TH17 cytokine inhibition measured by ELISA (IL-17AF); type: cell-based; conditions: 120 h; human TH17 cells, 5 days differentiation, ELISA of supernatants, 0.1% DMSO
Protocol: as §2
(§3) Human CD4+ T cells were differentiated to TH17 cells as described in the presence or absence of various concentrations of compounds in a final concentration of 0.1% DMSO in TexMACS medium. Supernatants were collected and stored at −20° C. until they were to be assayed for IL-17A, IL-17F, IL-17AF, IL-21 and/or IL-22 levels as determined by Ready-Set-Go ELISA kits (eBioscience) as per manufacturer's instructions. Endpoint absorbance was read at 450 nm and 570 nm according to manufacturer's instructions (eBioscience) using a microplate reader (Perkin Elmer). The percentage of cytokine inhibition was calculated with reference to DMSO treated cells and the IC50s were determined by GraphPad Prism software and presented in the table below.

[4] = test system: IL-22; test: TH17 cytokine inhibition measured by ELISA (IL-22); type: cell-based; conditions: 120 h; human TH17 cells, 5 days differentiation, ELISA of supernatants, 0.1% DMSO
Protocol: as §2, §3

[5] = test system: IL-17F; test: TH17 cytokine inhibition measured by ELISA (IL-17F); type: cell-based; conditions: 120 h; human TH17 cells, 5 days differentiation, ELISA of supernatants, 0.1% DMSO
Protocol: as §2, §3

[6] = test system: TH17 cells; test: TH17 cellular proliferation (Prestoblue); type: cell-based; conditions: Homo sapiens, 120 h; 3 μM compound, after 5 day TH17 differentiation, relative to DMSO treated TH17 cells; read-out: % change in TH17 cell number
Protocol: as §2
Cellular proliferation was assessed in the presence or absence of 3 μM compound using Prestoblue® Cell Viability Reagent (Life Technologies) as per manufacturer's instructions using absorbance as the output measured by a microplate reader (Perkin Elmer) after 30 minutes of incubation. A standard curve developed by plotting varying cell numbers versus absorbance was used to assess differences in cellular proliferation between compound treated or untreated cells after the 5 day TH17 differentiation period.

[7] = test system: IL-21; test: TH17 cytokine inhibition measured by ELISA (IL-21); type: cell-based; conditions: 120 h; human TH17 cells, 5 days differentiation, ELISA of supernatants, 0.1% DMSO
Protocol: as §2, §3

[8] = test system: IL-17A; test: TH17 cytokine inhibition measured by ELISA (IL-17A); type: cell-based; conditions: 120 h; human TH17 cells, 5 days differentiation, ELISA of supernatants, 0.1% DMSO
Protocol: as §2, §3

[9] = biological target: T2, RORγ LBD (Homo sapiens, UniProt P51449); test: TR-FRET D22 co-activator displacement from RORγ LBD; type: biochemical; design: purified GST-tagged (i) RORγ LBD or (ii) RORα LBD; purchased Life Technologies
T2 sequence (P51449 269-508 limits assumed): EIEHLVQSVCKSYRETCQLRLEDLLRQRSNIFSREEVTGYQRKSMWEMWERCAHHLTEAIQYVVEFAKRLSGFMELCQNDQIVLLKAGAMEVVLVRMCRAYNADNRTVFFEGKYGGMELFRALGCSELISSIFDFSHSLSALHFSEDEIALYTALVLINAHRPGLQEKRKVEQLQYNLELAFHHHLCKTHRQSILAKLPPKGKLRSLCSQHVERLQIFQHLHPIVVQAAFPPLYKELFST
Description: as §1

[10] = biological target: T1, RORα LBD; test: TR-FRET D22 co-activator displacement from RORα LBD; type: biochemical
Description: as §1

[11] = biological target: T2, RORγ LBD; test: TR-FRET NCoR1-D2 co-repressor recruitment to RORγ LBD; type: biochemical; design: purified GST-tagged (i) RORγ LBD or (ii) RORα LBD; purchased Life Technologies
Description: as §1

[12] = TR-FRET assessed 2 hr post-assay initiation, read-out: RORα EC50 NCoR1-D2 co-repressor recruitment, 2 hr
[13] = TR-FRET assessed 20 hr post-assay initiation, read-out: RORα EC50 NCoR1-D2 co-repressor recruitment, 20 hr
[14] = TR-FRET assessed 2 hr post-assay initiation, read-out: RORγ EC50 D22 co-activator displacement, 2 hr
[15] = TR-FRET assessed 20 hr post-assay initiation, read-out: RORγ EC50 D22 co-activator displacement, 20 hr
[16] = TR-FRET assessed 2 hr post-assay initiation, read-out: RORα EC50 D22 co-activator displacement, 2 hr
[17] = TR-FRET assessed 20 hr post-assay initiation, read-out: RORα EC50 D22 co-activator displacement, 20 hr
[18] = TR-FRET assessed 2 hr post-assay initiation, read-out: RORγ EC50 NCoR1-D2 co-repressor recruitment, 2 hr
[19] = TR-FRET assessed 20 hr post-assay initiation, read-out: RORγ EC50 NCoR1-D2 co-repressor recruitment, 20 hr

EC50 [1, 12]	EC50 [1, 13]	IC50 [3]	IC50 [4]	IC50 [5]	IC50 [7]	IC50 [8]	EC50 [9, 14]	EC50 [9, 15]	EC50 [10, 16]	EC50 [10, 17]	EC50 [11, 18]	EC50 [11, 19]	melting point	Structure (SMILES)	viability at 5 days, 1 µM [2]	inhibition at 3 µM [6]
> 30 µM	< 30 µM	< 10 µM	< 10 µM	< 10 µM	< 10 µM	< 10 µM	< 30 µM	< 30 µM	< 30 µM	< 30 µM	< 30 µM	< 30 µM	–	Cc1cc(-c2ccc3c(c2)CCN3Cc2ccc(C(O)(C(F)(F)F)C(F)(F)F)cc2)[nH]n1 [Example 7, 1,1,1,3,3,3-hexafluoro-2-(4-((5-(3-methyl-1H-pyrazol-5-yl)indolin-1-yl)methyl)phenyl)propan-2-ol]	> 80%	> 50%
< 30 µM	> 30 µM	< 10 µM	< 10 µM	< 10 µM	< 10 µM	< 10 µM	< 30 µM	< 30 µM	> 30 µM	< 30 µM	< 30 µM	> 30 µM	191 to 195 °C	OC(c1ccc(CN2CCc3cc(-c4cn[nH]c4)ccc32)cc1)(C(F)(F)F)C(F)(F)F [Example 8, 2-(4-((5-(1H-pyrazol-4-yl)indolin-1-yl)methyl)phenyl)-1,1,1,3,3,3-hexafluoropropan-2-ol]	> 80%	> 50%
> 30 µM	< 30 µM	> 10 µM	< 10 µM	< 10 µM	< 10 µM	< 10 µM	> 30 µM	> 30 µM	> 30 µM	< 30 µM	< 30 µM	> 30 µM	–	Cc1nnc(-c2ccc3c(c2)CCN3Cc2ccc(C(O)(C(F)(F)F)C(F)(F)F)cc2)o1 [Example 9, 1,1,1,3,3,3-hexafluoro-2-(4-((5-(5-methyl-1,3,4-oxadiazol-2-yl)indolin-1-yl)methyl)phenyl)propan-2-ol]	> 80%	> 50%
